Assay results reported in patent US9200046B2, “Reporter system for high throughput screening of compounds and uses thereof” (priority 2011, dated 2015).
Several values for one entry are separate records, joined by “and”; a condition that tells them apart may be missing. Equal values may be shown once. Where a name gives a salt, the structure may show the parent alone. Read-outs that look alike come from different tables or passages of the source.

Target: Nrf2-Keap1 complex (Homo sapiens, UniProt Q14145)
Experiment: cell-based
Type: cell-based
Details: for activation at 16 µM / activation at 32 µM: 3 h; for activation at 16 µM: read-out: Activation 100 nL; for activation at 32 µM: read-out: Activation 200 nL
[1] = Table 2, 100 nL compound, screen run at 16 and 32 μM, 3 hr
[2] = Table 2, 200 nL compound, screen run at 16 and 32 μM, 3 hr
[3] = Table 1A, 100 nL compound, screen run at 16 and 32 μM, 3 hr
[4] = Table 1A, 200 nL compound, screen run at 16 and 32 μM, 3 hr

Sequence of Nrf2-Keap1 complex (Q14145 whole entry, one chain of several): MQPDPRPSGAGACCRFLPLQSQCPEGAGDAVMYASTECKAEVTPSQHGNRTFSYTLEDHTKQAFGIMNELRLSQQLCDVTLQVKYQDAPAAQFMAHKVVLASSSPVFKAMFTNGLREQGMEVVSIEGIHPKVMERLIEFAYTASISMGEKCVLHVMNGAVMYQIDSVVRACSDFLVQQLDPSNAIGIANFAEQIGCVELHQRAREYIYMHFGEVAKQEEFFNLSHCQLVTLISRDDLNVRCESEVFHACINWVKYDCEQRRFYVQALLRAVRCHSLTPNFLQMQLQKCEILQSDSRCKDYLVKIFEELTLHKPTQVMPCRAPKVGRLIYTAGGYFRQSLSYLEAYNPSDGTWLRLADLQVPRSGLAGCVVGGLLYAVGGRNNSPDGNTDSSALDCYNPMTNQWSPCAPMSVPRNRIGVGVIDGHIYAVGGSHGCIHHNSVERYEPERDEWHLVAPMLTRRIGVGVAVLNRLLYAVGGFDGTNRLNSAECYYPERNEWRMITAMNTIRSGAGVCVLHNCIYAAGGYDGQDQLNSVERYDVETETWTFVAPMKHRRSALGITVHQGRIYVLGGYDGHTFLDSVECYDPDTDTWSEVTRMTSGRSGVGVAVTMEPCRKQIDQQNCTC

Row | Compound | Activation 100 nL [%] | Activation 200 nL [%] | 100 nL (luminescence) [1] | 200 nL (luminescence) [2] | activation at 16 µM [%] | activation at 32 µM [%] | further results
1 | O=C(C=C(O)c1ccccc1)c1ccccc1O [2′,beta-DIHYDROXYCHALCONE] | 112 | −18 | 2064 | 44 | – | – | –
2 | COC1=CC(=O)C(C(=O)c2ccccc2)=CC1=O [2-BENZOYL-5-METHOXYBENZOQUINONE] | – | – | 994 | 2280 | 72 | 83 | –
3 | COc1ccc2cc1Oc1ccc(cc1)C[C@H]1c3c(cc4c(c3Oc3cc5c(cc3OC)CCN(C)[C@@H]5C2)OCO4)CCN1C [CEPHARANTHINE, reference compound] | – | – | – | – | 98 | 9 | 100 nL (luminescence) [3]: 2348; 200 nL (luminescence) [4]: 584
4 | COC(=O)Nc1nc2ccc(Sc3ccccc3)cc2[nH]1 [FENBENDAZOLE, reference compound] | – | – | – | – | 224 | -24 | 100 nL (luminescence) [3]: 4908; 200 nL (luminescence) [4]: 92
5 | COC(=O)C1=C(C)NC(C)=C(C(=O)OC)C1c1ccccc1[N+](=O)[O-] [NIFEDIPINE, reference compound] | – | – | – | – | 35 | -10 | –
6 | C[C@@](Cc1ccc(O)c(O)c1)(NN)C(=O)O [CARBIDOPA, reference compound] | – | – | 2262 | 1900 | 217 | 67 | –
7 | COc1ccc(-c2oc3cc(O[C@@H]4O[C@H](CO)[C@@H](O)[C@H](O)[C@H]4O)c(OC)c(O)c3c(=O)c2OC)cc1O [CENTAUREIN] | – | – | 916 | 876 | 41 | 19 | –
8 | CC(=O)O[C@H]1C[C@@H](O)C(C)(C)[C@@H]2C[C@@H](OC(C)=O)[C@]3(C)[C@H](CC[C@@]4(C)[C@@H](c5ccoc5)OC(=O)[C@H]5O[C@@]534)[C@@]12C [3-DEACETYLKHIVORIN] | 94 | 72 | 1628 | 2102 | – | – | –
9 | O=C(/C=C/c1ccccc1)c1ccc(O[C@@H]2O[C@H](CO)[C@@H](O)[C@H](O)[C@H]2O)cc1O [2′,4′-DIHYDROXYCHALCONE4′-GLUCOSIDE] | 33 | 121 | 1056 | 2592 | – | – | –
10 | Oc1ccc2c(c1)OCC1c3cc4c(cc3OC21)OCO4 (centres unmarked) [MAACKIAIN] | – | – | – | – | 74 | 95 | 100 nL (luminescence) [3]: 1492; 200 nL (luminescence) [4]: 1772
11 | CCCCCCCCCCCCCCCc1ccco1 [AVOCADANOFURAN] | 59 | 32 | 880 | 1088 | – | – | –
12 | CCC(=O)O[C@H]1[C@H](O[C@@H]2[C@@H](C)[C@H](O[C@H]3C[C@@](C)(OC)[C@@H](O)[C@H](C)O3)[C@@H](C)C(=O)O[C@H](CC)[C@@](C)(O)[C@H](O)[C@@H](C)C(=O)[C@H](C)C[C@@]2(C)O)O[C@H](C)C[C@@H]1N(C)C [ERYTHROMYCINESTOLATE, reference compound] | – | – | – | – | 31 | 71 | –
13 | COc1ccc(C(=O)/C=C/c2ccccc2)cc1 [4′-METHOXYCHALCONE] | – | – | 2400 | 102 | 134 | -15 | –
14 | CC1(C)[N+]([O-])=[N+]([O-])C1(C)Br (centres unmarked) | 55 | 83 | 1308 | 1976 | – | – | –
15 | OC[C@H]1O[C@H]([S-])[C@H](O)[C@@H](O)[C@@H]1O.[Au+] [AUROTHIOGLUCOSE, reference compound] | 27 | 1 | 604 | 360 | – | – | –
16 | Cc1c(O)c(O)cc2c1CC=C1[C@@]2(C)CC[C@@]2(C)[C@@H]3C[C@](C)(C(=O)O)CC[C@]3(C)CC[C@]12C [DIHYDROCELASTROL] | – | – | 1196 | 88 | 62 | -16 | hit strength in the screen (words): modest hit
17 | CC1=C(CC(=O)O)c2cc(F)ccc2/C1=C\c1ccc([S+](C)[O-])cc1 (centres unmarked) [reference compound] | – | – | – | – | 114 | 188 | Neh2-luc reporter activation: 200%; 100 nL (luminescence) [3]: 2692; 200 nL (luminescence) [4]: 2710

Row | Compound | Activation 100 nL [%] | Activation 200 nL [%] | 100 nL (luminescence) [1] | 200 nL (luminescence) [2] | activation at 16 µM [%] | activation at 32 µM [%] | further results
18 | CC(=O)O[C@H]1CC[C@]2(C)C(C[C@@H](OC(C)=O)[C@]3(C)C4=CC(=O)O[C@H](c5ccoc5)[C@@]4(C)CCC23)C1(C)C (stereo partly drawn) [3-DEOXO-3beta-ACETOXYDEOXYDIHYDROGEDUNIN] | 59 | 61 | 1256 | 1252 | – | – | –
19 | COc1ccc2c(c1)OCC(Cc1ccc(O)c(OC)c1)C2=O (centres unmarked) | – | – | – | – | – | – | 100 nL (luminescence): 1416 and 900
20 | COc1cc2c(c(OC)c1OC)-c1ccc(OC)c(=O)cc1[C@@H](NC(C)=O)CC2 [COLCHICINE, reference compound] | – | – | – | – | 49 | 24 | 100 nL (luminescence): 944; 200 nL (luminescence): 840
21 | O=C(/C=C/c1ccc(O)cc1)c1ccccc1O [2′,4-DIHYDROXYCHALCONE] | – | – | 3784 | 120 | 390 | -9 | –
22 | CC1(C)C(=O)CC[C@]2(C)[C@H]3CC[C@]4(C)C(=CC(=O)O[C@H]4c4ccoc4)[C@]3(C)[C@H](O)C[C@@H]12 [DIHYDRO-7-DESACETYLDEOXYGEDUNIN] | 98 | 96 | 1852 | 1796 | – | – | –
23 | C=C1C2=CC(=O)O[C@@H](c3ccoc3)[C@]2(C)CC[C@@H]1[C@@]1(C)C=CC(=O)C(C)(C)[C@@H]1CC(=O)OC [DEOXYANDIROBIN] | – | – | 1816 | 1944 | 95 | 106 | –
24 | COc1cc(C/C=C/c2ccccc2)c(OC)cc1O [VIOLASTYRENE] | – | – | 2388 | 1096 | 133 | 50 | –
25 | COc1cc(O)c(C(=O)/C=C/c2ccc(O)c(OC)c2)c(OC)c1 [2′,4-DIHYDROXY-3,4′,6′-TRIMETHOXYCHALCONE] | – | – | 6104 | 7512 | 655 | 305 | –
26 | COc1ccc2c(c1)OC/C(=C\c1ccc(OC)c(O)c1)C2=O [SAPPANONEADIMETHYLETHER] | – | – | 6124 | 2008 | 377 | 110 | –
27 | [H]/N=C(\N/C(=N/[H])NCCCCCCNC(=N)NC(=N)Nc1ccc(Cl)cc1)Nc1ccc(Cl)cc1 [CHLORHEXIDINE, reference compound] | 147 | 67 | 2188 | 1750 | – | – | –
28 | COC1=CC(=O)C[C@@H](C)[C@]12Oc1c(Cl)c(OC)cc(OC)c1C2=O [GRISEOFULVIN, reference compound] | – | – | 1208 | 3684 | 41 | 182 | –
29 | NCCc1ccc(O)c(O)c1 [3-HYDROXYTYRAMINE] | – | – | – | – | 37 | 69 | 100 nL (luminescence): 990; 200 nL (luminescence): 1704
30 | COc1cc2nc(N3CCN(C(=O)c4ccco4)CC3)nc(N)c2cc1OC [PRAZOSINHYDROCHLORIDE, reference compound] | – | – | – | – | 87 | 40 | –
31 | […](CAPE) | 245 | −14 | 2508 | 16 | – | – | –
32 | C#C[C@]1(O)CC[C@H]2[C@@H]3CCC4=C(CCC(=O)C4)[C@H]3CC[C@@]21C [NORETHYNODREL, reference compound] | – | – | – | – | 128 | 171 | 100 nL (luminescence): 1948; 200 nL (luminescence): 3920
33 | Cc1coc2c1C(=O)C(=O)c1c-2ccc2c1CCCC2(C)C [TANSHINONEIIA] | – | – | 5092 | 2452 | 354 | 87 | –
